The values below come from patent US20260167656A1, “PHOSPHORAMIDATE COMPOUNDS AND USES THEREOF” (ALLORION THERAPEUTICS INC, priority 2022, published 2026).

One may read the IC50 as the concentration at which inhibition is half-maximal.

Assay [1] concerns non-small cell lung cancer cell line H460. Put plainly: H460 proliferation assay in the presence of 3 uM ASP9521 (AKR1C3 specific inhibitor). Format: cell-based, human. As to conditions: H460 cells, CellTiter-Glo, 72 hours, in the presence of 3 uM ASP9521 added 4 hours prior to compounds; read-out: CTG H460: Avg IC50 (nM) [Assay Condition: ASP9521]. In outline: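 AKR1C3 blocked with 3 uM ASP9521 given 4 h ahead of test compounds. H460 cells, plated 24 h earlier, were then treated for 72 h at 37 °C in 5% CO2. CellTiter-Glo luminescence gave viability.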
(In general: ATP-based viability assays read luminescence as a measure of living cells.)

The test system is the same in assay [2]. The experiment in a line: In vitro human cancer cell line cytotoxicity (proliferation) assay in H460, CellTiter-Glo, 72 hours. As to conditions: DMSO condition (no AKR1C3 inhibitor), read-out: CTG H460: Avg IC50 (nM) [Assay Condition: DMSO]. Format: cell-based. In outline:
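IC50s in nM come from CellTiter-Glo viability read after 72 h of compound exposure. Compounds went in from 10 mM DMSO stocks onto H460 cells, which had been plated at 3×10^3 per well and grown 24 h beforehand at 37 °C, 5% CO2.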

The mark [3] stands for this setting: Homo sapiens, NCI-H460, 72 h, H460 cells.

Regarding `O=[N+]([O-])c1ccc2c(c1Oc1ccc(F)c(-n3cc(F)cn3)c1)CCC2OP(=O)(N1CC1)N1CC1` (racemic) [Example 418], the IC50 in assay [1] is 1210 nM; in assay [2] (H460 cells), less than 10 nM.

`Cn1c(-c2cccc(Oc3c([N+](=O)[O-])ccc4c3CCC4OP(=O)(N3CC3)N3CC3)c2)cccc1=O` (stereo not shown) [Example 74]: the IC50 is 1270 nM in assay [1] and no less than 100 nM in assay [2] (H460 cells).

As to `O=[N+]([O-])c1cc2oc(COP(=O)(N3CC3)N3CC3)cc2cc1Oc1cccc(C2CC2)c1` [Example 555], the figures for the IC50 in assay [1] and in assay [2] (H460 cells) were 1490 nM and less than 10 nM, respectively.

For the compound `O=[N+]([O-])c1ccc2c(c1Oc1cccc(OCC3CC3)c1)CCC2OP(=O)(N1CC1)N1CC1` (stereo not shown) [Example 482], the half-inhibitory concentration (IC50) in assay [1] was 1340 nM; in assay [2] (H460 cells), less than 10 nM.

In the case of `Cn1ccc2cc(Oc3c([N+](=O)[O-])ccc4c3CC[C@@H]4OP(=O)(N3CC3)N3CC3)ccc2c1=O` [Example 382], the IC50 in assay [1] was 320 nM; in assay [2] (setting [3]), less than 10 nM.

On to `C[C@@H]1CN(C(=O)c2cccc(Oc3c([N+](=O)[O-])ccc4c3CC[C@H]4OP(=O)(N3CC3)N3CC3)c2)C[C@H](C)O1` [Example 248], for which the IC50 was 1650 nM in assay [1] and less than 10 nM in assay [2] (H460 cells).

With `Cn1nnc(-c2cccc(Oc3c([N+](=O)[O-])ccc4c3CC[C@@H]4OP(=O)(N3CC3)N3CC3)c2)n1` [Example 354], the figures for the IC50 in assay [1] and in assay [2] (setting [3]) were 768 nM and less than 10 nM, respectively.

Turning to `O=[N+]([O-])c1ccc2c(c1Oc1ccc(-c3ccc(F)cc3)c(F)c1)CCC2OP(=O)(N1CC1)N1CC1` (single isomer, unassigned) [Example 27], the IC50 in assay [1] was 1170 nM; in assay [2] (setting [3]), less than 10 nM.

On to `CSc1ccc(Oc2c([N+](=O)[O-])ccc3c2CC[C@@H]3OP(=O)(N2CC2)N2CC2)cc1-c1nc(C)ns1` [Example 376], for which the concentration for half-maximal inhibition (IC50) is 1850 nM in assay [1] and less than 10 nM in assay [2] (setting [3]).

Consider `O=[N+]([O-])c1ccc2c(c1Oc1ccc(-c3ccc(Cl)cc3)cc1)CCC2OP(=O)(N1CC1)N1CC1` (stereo not shown) [Example 44], for which the IC50 in assay [1] was 1940 nM; in assay [2] (H460 cells) it was no less than 100 nM.

On to `O=C(c1cccc(Oc2cc3cc(COP(=O)(N4CC4)N4CC4)oc3cc2[N+](=O)[O-])c1)N1CCOCC1` [Example 556], for which the half-inhibitory concentration (IC50) in assay [1] was 1060 nM; in assay [2] (H460 cells), less than 10 nM.

For `O=C(c1cc(Oc2c([N+](=O)[O-])ccc3c2CC[C@@H]3OP(=O)(N2CC2)N2CC2)ccc1F)N1CCC1` [Example 257], the results for the half-maximal inhibitory concentration (IC50) in assay [1] and in assay [2] (H460 cells) were 1810 nM and less than 10 nM, respectively.

Consider `O=[N+]([O-])c1ccc2c(c1Oc1ccc(OC3CCCC3)cc1)CCC2OP(=O)(N1CC1)N1CC1` (stereo not shown) [Example 491], for which the figures for the concentration for half-maximal inhibition (IC50) in assay [1] and in assay [2] (H460 cells) were 1940 nM and less than 10 nM, respectively.

For the compound `O=[N+]([O-])c1cc2c(cc1Oc1ccccc1-c1ccccc1)C(OP(=O)(N1CC1)N1CC1)CC2` (stereo not shown) [Example 196], the IC50 in assay [1] was 6370 nM; in assay [2] (setting [3]), no less than 100 nM.

Consider `O=[N+]([O-])c1cc2c(cc1Oc1ccc(-c3ccccc3)nc1)[C@@H](OP(=O)(N1CC1)N1CC1)CC2` [Example 527], for which the values for the 50% inhibitory concentration (IC50) in assay [1] and in assay [2] (H460 cells) were 1090 nM and less than 10 nM, respectively.

For the compound `O=C(c1cccc(Oc2c([N+](=O)[O-])ccc3c2CCC3OP(=O)(N2CC2)N2CC2)c1)N1CCC(F)(F)C1` (stereo not shown) [Example 101], the IC50 was 1210 nM in assay [1] and less than 10 nM in assay [2] (setting [3]).

Take `CC(C)COc1cccc(Oc2c([N+](=O)[O-])ccc3c2CCC3OP(=O)(N2CC2)N2CC2)c1` (stereo not shown) [Example 485]: the half-inhibitory concentration (IC50) is 1150 nM in assay [1] and less than 10 nM in assay [2] (H460 cells).

Take `O=[N+]([O-])c1ccc2c(c1Oc1cccc(OC3CCC3)c1)CC[C@@H]2OP(=O)(N1CC1)N1CC1` [Example 463]: the results for the IC50 in assay [1] and in assay [2] (H460 cells) were 478 nM and less than 10 nM, respectively.

On to `O=C(c1cccc(Oc2c([N+](=O)[O-])ccc3c2CCC3OP(=O)(N2CC2)N2CC2)c1)N1CCC(F)(F)C1` (stereo not shown) [Example 102], for which the values for the IC50 in assay [1] and in assay [2] (H460 cells) were 919 nM and less than 10 nM, respectively.

For the compound `CC(C)Oc1cccc(Oc2cc3cc(COP(=O)(N4CC4)N4CC4)oc3cc2[N+](=O)[O-])c1` [Example 547], the concentration for half-maximal inhibition (IC50) is 1260 nM in assay [1] and less than 10 nM in assay [2] (H460 cells).

As to `CC(C)Oc1cccc(Oc2c([N+](=O)[O-])ccc3c2CC[C@H]3OP(=O)(N2CC2)N2CC2)c1` [Example 453], the IC50 in assay [1] is 819 nM; in assay [2] (H460 cells) it was less than 10 nM.

In the case of `O=[N+]([O-])c1cc2c(cc1Oc1cccc(-c3ccccc3)c1)C(OP(=O)(N1CC1)N1CC1)CC2` (single isomer, unassigned) [Example 168], the IC50 in assay [1] was 755 nM; in assay [2] (setting [3]) it was less than 10 nM.

As for `CC(OP(=O)(N1C[C@@H]1C)N1C[C@@H]1C)c1ccc([N+](=O)[O-])c(Oc2ccc(-c3ccccc3)cc2)c1` (stereo partly shown) [Example 217], the half-inhibitory concentration (IC50) is 1600 nM in assay [1] and less than 10 nM in assay [2] (setting [3]).

On to `O=[N+]([O-])c1ccc2c(c1Oc1cccc(-c3cccnc3)c1)CC[C@H]2OP(=O)(N1CC1)N1CC1` [Example 309], for which the IC50 in assay [1] was 3070 nM; in assay [2] (setting [3]), 10 to 50 nM.

`O=[N+]([O-])c1ccc2c(c1Oc1cccc(OC(F)(F)F)c1)CC[C@H]2OP(=O)(N1CC1)N1CC1` [Example 450]: the figures for the half-maximal inhibitory concentration (IC50) in assay [1] and in assay [2] (H460 cells) were 1060 nM and less than 10 nM, respectively.

`CC(OP(=O)(N1CC1)N1CC1)c1ccc([N+](=O)[O-])c(COc2ccncc2)c1` (stereo not shown) [Example 5]: the values for the IC50 in assay [1] and in assay [2] (setting [3]) were greater than 10000 nM and no less than 100 nM, respectively.

Take `Cn1c(=O)oc2ccc(Oc3c([N+](=O)[O-])ccc4c3CCC4OP(=O)(N3CC3)N3CC3)cc21` (stereo not shown) [Example 378]: the IC50 in assay [1] is 440 nM; in assay [2] (setting [3]), less than 10 nM.

On to `O=[N+]([O-])c1ccc2c(c1Oc1ccc(F)c(-c3ccc(F)cc3)c1)CC[C@@H]2OP(=O)(N1CC1)N1CC1` [Example 307], for which the 50% inhibitory concentration (IC50) is 2360 nM in assay [1] and less than 10 nM in assay [2] (Homo sapiens, NCI-H460, H460 cells).

As to `CN(C(=O)c1cccc(Oc2c([N+](=O)[O-])ccc3c2CCC3OP(=O)(N2CC2)N2CC2)c1)c1cnn(C)c1` (racemic) [Example 251], the half-inhibitory concentration (IC50) in assay [1] is 1090 nM; in assay [2] (H460 cells), less than 10 nM.

As to `C[C@@H](OP(=O)(N1CC1)N1CC1)c1cc2cc(Oc3cccc(-c4ccccn4)c3)c([N+](=O)[O-])cc2o1` [Example 553], the values for the IC50 in assay [1] and in assay [2] (H460 cells) were 2950 nM and 10 to 50 nM, respectively.

As for `O=[N+]([O-])c1ccc2c(c1Oc1ccc(OC3COC3)cc1)CC[C@H]2OP(=O)(N1CC1)N1CC1` [Example 492], the IC50 is 778 nM in assay [1] and less than 10 nM in assay [2] (setting [3]).

`CC1CN1P(=O)(OCc1ccc([N+](=O)[O-])c(Oc2cccc(C(=O)N(C)C)c2)c1)N1CC1C` (stereo not shown) [Example 206, 3-(3-(dimethylcarbamoyl)phenoxy)-4-nitrobenzyl bis(2-methylaziridin-1-yl)phosphinate]: the IC50 in assay [1] was 82.3 nM; in assay [2] (setting [3]), less than 10 nM.

With `O=[N+]([O-])c1ccc2c(c1Oc1ccc(-c3cccnc3)cc1)CC[C@H]2OP(=O)(N1CC1)N1CC1` [Example 272], the IC50 in assay [1] is 3120 nM; in assay [2] (H460 cells), 10 to 50 nM.

For `O=[N+]([O-])c1ccc2c(c1Oc1ccc(F)c(-c3cn[nH]c3)c1)CC[C@@H]2OP(=O)(N1CC1)N1CC1` [Example 370], the results for the concentration for half-maximal inhibition (IC50) in assay [1] and in assay [2] (setting [3]) were 967 nM and less than 10 nM, respectively.

For the compound `CN(C)C(=O)c1ccc(Oc2cc3c(cc2[N+](=O)[O-])CCC3OP(=O)(N2CC2)N2CC2)cc1` (single isomer, unassigned) [Example 141], the IC50 in assay [1] is 366 nM; in assay [2] (H460 cells) it was less than 10 nM.

For the compound `Cn1cc(-c2ccc(Oc3cc4c(cc3[N+](=O)[O-])CCC4OP(=O)(N3CC3)N3CC3)cc2)ccc1=O` (stereo not shown) [Example 179], the figures for the IC50 in assay [1] and in assay [2] (H460 cells) were 1100 nM and no less than 100 nM, respectively.

For the compound `CN(C)C(=O)c1ccc(Oc2c([N+](=O)[O-])ccc3c2OCCC3OP(=O)(N2CC2)N2CC2)cc1` (single isomer, unassigned) [Example 131], the IC50 in assay [1] is 314 nM; in assay [2] (H460 cells), less than 10 nM.

Turning to `Cn1cnc2ccc(Oc3cc4c(cc3[N+](=O)[O-])CCC4OP(=O)(N3CC3)N3CC3)cc2c1=O` (stereo not shown) [Example 195], the concentration for half-maximal inhibition (IC50) in assay [1] is 4980 nM; in assay [2] (H460 cells), 10 to 50 nM.

As for `O=[N+]([O-])c1ccc2c(c1Oc1ccc(-c3ccc(F)cc3)cc1)CCC2OP(=O)(N1CC1)N1CC1` (stereo not shown) [Example 21], the IC50 in assay [1] is 1420 nM; in assay [2] (setting [3]) it was less than 10 nM.

Consider `CN1Cc2ccc(Oc3cc4cc(COP(=O)(N5CC5)N5CC5)oc4cc3[N+](=O)[O-])cc2C1=O` [Example 569], for which the IC50 was 937 nM in assay [1] and less than 10 nM in assay [2] (H460 cells).

Turning to `O=[N+]([O-])c1ccc2c(c1Oc1ccc(-n3cc(F)cn3)cc1)CCC2OP(=O)(N1CC1)N1CC1` (racemic) [Example 419], the results for the IC50 in assay [1] and in assay [2] (H460 cells) were 1180 nM and less than 10 nM, respectively.

Regarding `N#Cc1ccc(-c2ccc(Oc3c([N+](=O)[O-])ccc4c3CCC4OP(=O)(N3CC3)N3CC3)cc2)nc1` (stereo not shown) [Example 288], the figures for the half-maximal inhibitory concentration (IC50) in assay [1] and in assay [2] (H460 cells) were 1940 nM and less than 10 nM, respectively.

As for `O=[N+]([O-])c1ccc2c(c1Oc1ccc(F)c(-n3ccc(F)n3)c1)CC[C@@H]2OP(=O)(N1CC1)N1CC1` [Example 442], the half-maximal inhibitory concentration (IC50) in assay [1] was 667 nM; in assay [2] (setting [3]), less than 10 nM.

Regarding `CS(=O)(=O)c1cc(Oc2c([N+](=O)[O-])ccc3c2CCC3OP(=O)(N2CC2)N2CC2)ccc1F` (stereo not shown) [Example 508], the IC50 in assay [1] is 519 nM; in assay [2] (H460 cells), less than 10 nM.
